Experimental data as given in patent US10722491B2, “Phenol compound and combination of same with a benzodiazepine fused to 1,4-dihydropyridine for treating diseases of the central nervous and vascular systems” (UNIVERSIDAD DE LA HABANA, priority 2016, dated 2020).

System: rat brain homogenate
Assay: Spontaneous or Fe3+/AA-induced lipid peroxidation (POL) in rat brain homogenate
Format: biochemical
Settings: 37° C 1 hour, MDA
Description: FIG. 5. Effects of KM-34 (0.01-100 μM) on spontaneous lipid peroxidation and e induced by 100 mM FeCl3 and 100 mM AA. The control contains absolute ethanol instead of KM-34. The samples were incubated at 37° C for 1 hour and then the MDA levels were quantified by thiobarbituric acid (ATB) and the absorbance was determined at 532 nm. Values are expressed as the mean ± SD (n=3). *P<0.05 with respect to the control.
The brain homegenate is rich in phospholipids, which undergo spontaneous or induced autoxidation by the presence of FeCl3 and AA, where the latter is oxidized at the expense of the metal being reduced and thus the ion is available to catalyze the Fenton-Habber reaction-Weiss (Hiroi et al., 2005; Kooncumchoo, 2005).

For CC1(C)OC(=O)C(=Cc2ccc(O)c(O)c2)C(=O)O1 [KM-34, 5-[(3,4-dihydroxyphenyl)methylidene]-2,2-dimethyl-1,3-dioxane-4,6-dione], which “Concentration significantly inhibiting Fe3+/AA-induced POL” value (induced by FeCl3 and AA) is on record?
Its value is over 10 µM.

And the “Concentration significantly inhibiting spontaneous POL” value (spontaneous lipid peroxidation)?
Its value is “higher than 0.1 μM”.
